Paper PMC8537218, “Discovery of a Novel Class of Norovirus Inhibitors with High Barrier of Resistance” (Pharmaceuticals, 2021)
Like-named read-outs stand apart in the source and are kept apart here.

What was measured:
MNV = test: Time-of-drug-addition assay (TOA) in MNV-infected RAW 264.7 cells; format: cell-based, Murine norovirus; settings: time-of-addition experiment
Method: RAW 264.7 cells (4 × 10^5 cells/mL) were infected with MNV (MOI of 1). After 1 h at 4 °C, cells were washed with cold (4 °C) DMEM to remove unbound viruses. Cells were incubated at 37 °C to start the infection. To study the replication kinetics of MNV supernatant and cells were harvested, from untreated cultures, every 2 h until 24 h post-infection (pi) and viral RNA was quantified by RT-qPCR. In parallel, another set of infected cultures were treated with compound. The compound was added at 2 h intervals and cultures were further incubated until 24 h pi, supernatant and cells were collected separately for determination of the viral RNA by RT-qPCR. The isolation of the extracellular MNV RNA from cell culture supernatant was done by the NucleoSpin RNA Virus Kit (Macherey–Nagel), and the intracellular RNA was extracted from cells by the RNeasy kit (Qiagen).

[1] = system: MNV.CW3/S131T and MNV.CW3/Y154F; test: Antiviral assay on reverse-engineered MNV.CW3 mutant viruses (S131T, Y154F); format: cell-based, Murine norovirus; settings: single mutations S131T or Y154F in MNV backbone
Method: The desired mutations were introduced into the MNV.CW3 cDNA clones using the QuikChange II XL mutagenesis kit (Agilent) according to the manufacturer’s instructions. The presence of the desired mutation in the produced construct was confirmed by PCR and sequencing was done by Macrogen Inc. Sequences were analyzed and mutations were detected using the Geneious software.
The MNV.CW3 mutant viral stocks were obtained by transfecting the mutated plasmid pMNV CW3 (kindly provided by Prof. Wobus, University of Michigan) in Huh 7 Lunet cells expressing the MNV receptor CD300lf (kindly provided by Prof. Taube, University of Lübeck). Huh-7 CD300lf cells were cultured under selective pressure of G418. The Huh-7 CD300lf cells were seeded in 6-well plates at a density of 2 × 10^5 cells/mL in 2.5 mL of complete media. After 24 h, the cells were transfected with 2.5 μg of pMNV CW3 plasmid DNA using the TransIT mRNA Transfection Kit (Mirus Bio Corporation) according to the manufacturer’s protocol. Red fluorescent protein (RFP) was used as a positive control for transfection. Transfected cells were incubated for 48 h, cells underwent two freeze thaw cycles and the virus was harvested from the supernatants after centrifugation (10 min, 1000× g) and stored at −80 °C. Virus stocks were passaged for three times on BV-2 cells and followed by two consecutive passages on RAW 264.7 cells. Viral titers were determined by serial dilutions on RAW 264.7 cells seeded in 96-well plates.
The assessment of the antiviral activity of compounds on resistant viruses was performed similarly as the regular antiviral assay on MNV. First, the titer of the resistant viruses was determined by endpoint titration. A concentration of 30× TCID50 was used for each virus in the antiviral assays. RAW 264.7 cells (1 × 10^4 cells/well) were seeded in the presence of a dilution series of compounds and infected. Antiviral activity was determined using the MTS method. The 50% effective concentration (EC50) was defined as the compound concentration that protected 50% of the cells from CPE.

[2] = system: HuNoV GI.1 replicon (Norwalk replicon); test: HuNoV GI.1 replicon assay in HG23 cells (RT-qPCR); format: cell-based, Human norovirus; settings: Norovirus, HG23, 72 h, Norwalk replicon (human GI.1), HG23 cells, 72 h, replicon RNA by RT-qPCR; read-out: HuNoV Replicon EC50 ± SD
Method: HuNoV GI.1 replicon: The experiment was performed as described earlier with minor modifications. In short, HG23 cells (7.5 × 10^2 cells/well) were seeded into the wells of a 96-well plate without G418 (Geneticin Selective Antibiotic). After 24 h of incubation, serial dilutions of compounds were added. Cells were further incubated for 72 h, then cells were collected for RNA load quantification by RT-qPCR. To determine relative levels of Norwalk virus replicon RNA, β-actin was used as a normalizer and ratios were calculated as previously described.

[3] = Cytotoxicity assay (MTS) on non-infected RAW 264.7 cells; format: cell-based; settings: mouse, non-infected RAW 264.7 cells, cytotoxic concentration to induce 50% death of non-infected RAW 264.7 cells; read-out: MNV CC50 ± SD
Method: (§1) Norovirus: The experiment was performed as described earlier. In short, RAW 264.7 cells (1 × 10^4 cells/well) were infected with MNV.CW1 in the presence of a dilution series of compounds. Antiviral activity and cytotoxicity were determined using a colometric assay using 3-(4,5-dimethylthiazol-2-yl)-5-(3-carboxymethoxyphenyl)-2-(4-sulfophenyl)-2H-tetrazolium (MTS). The 50% effective concentration (EC50) was defined as the compound concentration that protected 50% of the cells from CPE. The cell viability % was calculated as (ODtreated/ODCC) […] and the 50% cytotoxic concentration (CC50) was defined as the compound concentration that reduces the number of viable cells by 50%.

[4] = system: Murine norovirus type 1, strain CW1; test: MNV-induced CPE reduction assay (MTS read-out) in RAW 264.7 cells; format: cell-based; settings: MNV CW1, RAW 264.7 cells, read-out: MNV EC50 ± SD
Method: as §1

RAW 264.7 cells = test: Cytotoxicity assay (MTS) on non-infected RAW 264.7 cells; format: cell-based; settings: RAW 264.7 cells
Method: as §1

[5] = RAW264.7, concentration inhibiting norovirus induced cell death (CPE) by 50%

C[C@@]1(O)[C@H](O)[C@@H](CO)O[C@H]1n1ccc(N)nc1=O [2CMC, 2′-C-methylcytidine, reference compound]
step of the MNV replication cycle at which the compound acts (MNV): onset of the viral genome replication
shift in EC50 / sensitivity of mutant viruses [1]: remained equally sensitive

Cc1cc(C)cc(S(=O)(=O)c2c(C(=O)Nc3ccc(CO)cc3)[nH]c3ccc(Cl)cc23)c1 [compound 1, 5-Chloro-3-((3,5-dimethylphenyl)sulfonyl)-N-(4-(hydroxymethyl)phenyl)-1H-indole-2-carboxamide]
EC50 [2]: ~2 µM
CC50 [3]: > 100 µM
melting point: 220 to 221 °C
EC50 [4, 5]: 0.5 ± 0.1 µM
EC50 ([4]; concentration inhibiting norovirus induced cell death (CPE) by 50%): 0.52 ± 0.07 µM

Cc1cc(C)cc(S(=O)(=O)c2c(C(=O)NCc3ccccc3)[nH]c3ccc(Cl)cc23)c1 [compound 2, N-Benzyl-5-chloro-3-((3,5-dimethylphenyl)sulfonyl)-1H-indole-2-carboxamide]
EC50 [2]: 3.66 ± 0.66 µM
CC50 [3]: > 100 µM
EC50 [4, 5]: > 100 µM

Cc1cc(C)cc(S(=O)(=O)c2c(C(=O)NCCO)[nH]c3ccc(Cl)cc23)c1 [compound 3, 5-Chloro-3-((3,5-dimethylphenyl)sulfonyl)-N-(2-hydroxyethyl)-1H-indole-2-carboxamide]
EC50 [2]: 47.7 ± 3.39 µM
CC50 [3]: 88.7 ± 4.75 µM
EC50 [4, 5]: > 100 µM

Cc1cc(C)cc(S(=O)(=O)c2c(C(=O)NCc3ccc(O)cc3)[nH]c3ccc(Cl)cc23)c1 [compound 4, 5-Chloro-3-((3,5-dimethylphenyl)sulfonyl)-N-(4-hydroxybenzyl)-1H-indole-2-carboxamide]
EC50 [2]: 88.3 ± 4.75 µM
CC50 [3]: 3.48 ± 1.1 µM
cytotoxicity (in words) (RAW 264.7 cells): highly cytotoxic
melting point: 236 to 237 °C
EC50 [4, 5]: > 100 µM

O=C(Nc1ccc(CO)cc1)c1[nH]c2ccc(Cl)cc2c1S(=O)(=O)c1ccccc1 [compound 5, 5-Chloro-N-(4-(hydroxymethyl)phenyl)-3-(phenylsulfonyl)-1H-indole-2-carboxamide]
CC50 [3]: 34.9 ± 5.03 µM
melting point: 152 to 155 °C
EC50 [4, 5]: > 100 µM

Cc1cc(C)cc(Cc2c(C(=O)NCc3ccc(CO)cc3)[nH]c3ccc(Cl)cc23)c1 [compound 7, 5-Chloro-3-(3,5-dimethylbenzyl)-N-(4-(hydroxymethyl)benzyl)-1H-indole-2-carboxamide]
EC50 [2]: 5.59 ± 2.47 µM
CC50 [3]: 9.27 ± 6.6 µM
melting point: 171 to 174 °C
EC50 [4, 5]: 0.84 ± 0.22 µM

Cc1cc(C)cc(C(=O)c2c(C(=O)NCc3ccc(CO)cc3)[nH]c3ccc(Cl)cc23)c1 [compound 8, 5-Chloro-3-(3,5-dimethylbenzoyl)-N-(4-(hydroxymethyl)benzyl)-1H-indole-2-carboxamide]
CC50 [3]: 7.97 ± 15.3 µM
melting point: 271 to 274 °C
EC50 [4, 5]: > 100 µM

Cc1cc(C)cc(Sc2c(C(=O)NCc3ccc(CO)cc3)[nH]c3ccc(Cl)cc23)c1 [compound 9, 5-Chloro-3-((3,5-dimethylphenyl)thio)-N-(4-(hydroxymethyl)benzyl)-1H-indole-2-carboxamide]
EC50 [2]: 11.8 ± 8.4 µM
CC50 [3]: 31.7 ± 8.01 µM
melting point: 212 to 215 °C
EC50 [4, 5]: 4.39 ± 4.78 µM

O=C(NCc1ccc(CO)cc1)c1[nH]c2ccc(Cl)cc2c1S(=O)(=O)c1ccccc1 [compound 10, 5-Chloro-N-(4-(hydroxymethyl)benzyl)-3-(phenylsulfonyl)-1H-indole-2-carboxamide]
EC50 [2]: 18.5 ± 16.3 µM
CC50 [3]: 25.7 ± 34.9 µM
melting point: 182 to 185 °C
EC50 [4, 5]: 0.63 ± 0.48 µM

Cc1cc(C)cc(S(=O)(=O)c2c(C(=O)NCCc3ccc(O)cc3)[nH]c3ccc(Cl)cc23)c1 [compound 11, 5-Chloro-3-((3,5-dimethylphenyl)sulfonyl)-N-(4-hydroxyphenethyl)-1H-indole-2-carboxamide]
EC50 [2]: 27.5 ± 28.7 µM
CC50 [3]: 8.49 ± 8.09 µM
cytotoxicity (in words) (RAW 264.7 cells): highly cytotoxic
melting point: 231 to 234 °C
EC50 [4, 5]: 36 ± 23.3 µM

CCOC(=O)/C=C/[C@H](C[C@@H]1CCNC1=O)NC(=O)[C@@H](CC(=O)[C@@H](NC(=O)c1cc(C)on1)C(C)C)Cc1ccc(F)cc1 [rupintrivir]
shift in EC50 / sensitivity of mutant viruses [1]: remained equally sensitive
